Assay results reported in patent US20070014736A1, “Methods of delivering corticotroph-derived glycoprotein hormone” (priority 2005, published 2007).

How the values were obtained:
human primary adipocytes = assay: CRE-luciferase reporter assay in human primary adipocytes; assay type: cell-based
Description: (§1) Differentiated murine 3T3 L1 adipocytes and primary human adipocytes were used to study signal transduction of CGH. 3T3 L1 fibroblasts were differentiated into adipocytes and the cells were transduced with recombinant adenovirus containing a reporter construct, a firefly luciferase gene under the control of cAMP response element (CRE) enhancer sequences. This assay system detects cAMP-mediated gene induction downstream of activation of Gs-coupled G-protein coupled receptors (GPCR's). […] In a separate experiment, undifferentiated 3T3 L1 fibroblasts were transduced with the recombinant adenovirus. […] In another experiment, human primary adipocytes were also transduced with the recombinant adenovirus containing a reporter construct. Treatment of the human adipocytes with isoproterenol produced a 17-fold induction of luciferase expression.
(§2) Cells were cultured at 37° C. in an 8% CO2 humidified incubator. Cells were seeded to collagen-coated 96-well plates (Becton Dickinson, cat. #356407) at a density of 5,000 cells per well. […] Luciferase activity was measured on a microplate luminometer (PerkinElmer Life Sciences, Inc., model LB 96V2R) following automated injection of 40 μl of luciferase assay substrate into each well. […]

[1] = system: differentiated 3T3 L1 adipocytes; assay: CRE-luciferase reporter assay in differentiated 3T3 L1 adipocytes; assay type: cell-based, murine
Description: as §1, §2

[2] = system: Delayed Type Hypersensitivity (DTH) reaction; assay: Delayed Type Hypersensitivity (DTH), change in ear thickness; assay type: in vivo, mice
adrenal glands = assay: Intraperitoneal recombinant CGH for two weeks, adrenal weight; assay type: in vivo, mice; conditions: 0.5 mg/kg Dex i.p. daily, day 15
Description: Summary: Mice were exposed to CGH through infection with adenovirus particles expressing GPHA2 and GPHB5, leading to overexpression and secretion of CGH from the liver of these animals. […] The hypertrophy was apparent in the inner cortical layers, the zona fasciculata and the zona reticularis. Similarly, mice were exposed to CGH through intraperitoneal injection of recombinant CGH protein alone, recombinant CGH protein along with the glucocorticoid Dexamethasone (Dex), Dex alone, or PBS alone daily for two weeks.
Sixteen C57BL/6 female mice at 8 weeks of age were separated into four groups. The first group received daily injections of 0.25 mg/kg of recombinant CGH protein intraperitoneally. The second group received daily injections of PBS using the same procedure. The third group received daily injections of 0.25 mg/kg of CGH plus 0.05 mg/kg Dex and the final group received 0.5 mg/kg Dex, alone. Animals were sacrificed on day 15 and the adrenal glands were isolated and weighed. Example 5 describes the expression and purification of recombinant CGH protein used in this experiment.

[3] = system: LPS-induced mild endotoxemia mouse model; assay: LPS-induced mild endotoxemia mouse model, serum cytokines; assay type: in vivo, mice
Description: An in vivo experiment was designed to examine the effect of CGH in a mouse model of LPS-induced mild endotoxemia. This model mimics acute endotoxemia/sepsis by challenging mice with a low, non-lethal dose of bacterial endotoxin (lipopolysaccharide, LPS). Serum is collected at various timepoints (1-8 hours) after intraperitoneal LPS injection and analyzed for altered expression of a wide variety of pro- and anti-inflammatory cytokines and acute phase proteins that mediate the inflammatory response. The model provides a means to assess the potential anti-inflammatory effects of therapeutic candidates during a robust inflammatory response. To initially assess the model, we measured proinflammatory cytokines in a pilot experiment to collect reference data for the model.
C57B1/6 mice (Charles River Laboratories; 5 mice/group) were treated i.p. with PBS, 0.2 mg/kg CGH in PBS, or 2 mg/kg CGH in PBS 1 hour prior to LPS challenge. The mice were then challenged with 25 ug of LPS i.p. and bled at 1 hour and 4 hours after LPS injection. Serum was analyzed for TNF[…] (1 hour) and IL-6 (4 hours) levels by ELISA.
To determine if CGH would potentiate the effect of a sub-maximal dose of glucocorticoid, groups of 10 C57B1/6 mice each were treated i.p. with PBS, 0.15 or 1.5 mg/kg Dex, 2 mg/kg CGH, or a combination of CGH and low or high doses of Dex, 1 hour prior to injection of 25 ug LPS i.p. As shown in TABLE 3 (Expt #2), either 2 mg/kg CGH or 1.5 mg/kg Dex treatment alone (1 hour prior to LPS) caused a significant drop in serum TNFα levels at 1 hour, as observed in previous experiments. The effects of CGH administered in conjunction with Dex on inhibition of TNFα production were greater than either dose of Dex alone.

[4] = system: neutrophil infiltration in the ears; assay: Neutrophil (Gr-1) histomorphometry of ears in DTH experiment #1; assay type: in vivo, mice; conditions: 1.5 mg/kg Dex i.p. at challenge (day 7)
Description: Ears from mice in DTH experiment #1 were analyzed by immunohistochemistry to assess which cell types were most affected by CGH treatment. Ears were fixed in Zinc/Tris buffer (2.3 mM calcium acetate/31.6 mM zinc acetate/36.7 mM zinc chloride in 0.1M Tris-HCL buffer, pH 7.4) for 24 hours at room temperature and stained with antibodies specific for CD4, CD8, CD11c, and Gr-1 (neutrophils). […] Ears were stained using a TechMate 500 autoimmunostainer (Biotech/Ventana) MIP protocol with some modifications. […] This step was followed, after a wash, by biotinylated rabbit anti-rat IgG secondary antibody (Dako, used at 10 ug/ml in PBS with 2% normal rabbit serum and 2% nonfat dry milk) for 45 min. The sections were then washed and treated with HP Block (1.5% H2O2 in 50% methanol) 3 times, 7 min each, followed by 25 min in avidin-biotin complex, 3 times of 4 min each in DAB (Diaminobenzidine), then with Methyl green for 10 min.
From this staining procedure, there was a clear reduction in the number of neutrophils infiltrating the ears of those mice treated with CGH or Dex, compared to the PBS-treated controls. Histomorphometry was performed to obtain the average pixel density of neutrophils per unit length (1 mm) present in the ear samples. Despite a fair amount of variability among each group, there was a significant reduction in neutrophil staining in the Dex and low dose CGH groups, as well as a nearly significant (p=0.0507) reduction in the high dose CGH group (see TABLE 5, p values).

[5] = target: T1, thyroid-stimulating hormone receptor (TSHR) expressed on BHK cells (BHK-TSHR cells) (UniProt P16473 21-764, limits assumed); assay: radioligand saturation binding to BHK-TSHR cells, two-site non-linear regression, high-affinity site
T1 construct: whole, on cells; also called TSH receptor
Description: (§3) Binding reactions were terminated by removing the binding medium and the cell monolayers were washed three times with 1.0-2.0 ml of ice-cold PBS containing 1.0 mg/ml BSA and twice with 1.0-2.0 ml of ice cold albumin-free PBS. Cells were solubilized in 1.0 ml of 1.0N NaOH for 10 min at room temperature and cell-associated radioactivity was determined in a gamma counter. The measured radioactivity was normalized to cell number that was determined on plates of cells cultured in parallel. Binding data were analyzed by non-linear regression using Prizm 3.0 (GraphPad Software, San Diego, Calif.).

[6] = target: T1, thyroid-stimulating hormone receptor …; assay: radioligand saturation binding to BHK-TSHR cells, two-site non-linear regression, low-affinity site
Description: as §3

[7] = system: parental BHK cells lacking the TSHR; assay: Binding of radioligands to parental BHK cells; conditions: data not shown
Description: as §3, with “BHK cells expressing murine or human TSHRs were cultured in Dulbecco's Modified Eagle's Medium [DMEM (high glucose)] containing 5% fetal bovine serum, 1% Glutamax, 1% sodium pyruvate, 250 nM methotrexate, and Geneticin ( 1/100). […] Plates of cells were placed on ice and washed twice with 1.0-2.0 ml of ice-cold PBS. […] Specific binding was determined in the presence (nonspecific binding) and absence (total binding) of unlabeled rhCGH (25.0 μg/ml) or TSH (10 μg/ml). Binding reactions” for “Binding reactions”

human TSHR = target: T2, human TSHR (Homo sapiens, UniProt P16473); assay: Bioactivity in BHK cells with CRE-luciferase reporter and human TSHR; assay type: cell-based; conditions: CRE-luciferase reporter
T2 construct: expressed in transfected cells; host or cells: BHK cells

TSHR = assay: Binding of 125I-CGH and 125I-TSH to BHK cells expressing the TSHR; parameters: species or system murine or human
Description: as §3, with “BHK cells expressing murine or human TSHRs were cultured in Dulbecco's Modified Eagle's Medium [DMEM (high glucose)] containing 5% fetal bovine serum, 1% Glutamax, 1% sodium pyruvate, 250 nM methotrexate, and Geneticin ( 1/100). […] Plates of cells were placed on ice and washed twice with 1.0-2.0 ml of ice-cold PBS. […] Specific binding was determined in the presence (nonspecific binding) and absence (total binding) of unlabeled rhCGH (25.0 μg/ml) or TSH (10 μg/ml). Binding reactions” for “Binding reactions”

[8] = Expt 1, 1.5 mg/kg Dex i.p. at challenge (d7), 24 h
[9] = Expt 2, 1.5 mg/kg Dex i.p. at challenge (d7)
[10] = Expt 3, 1.5 mg/kg Dex i.p. at sensitization (d0-4)

Q: CC(C)NCC(O)c1ccc(O)c(O)c1 (centres unmarked) [isoproterenol, reference compound] was tested. Which “induction of luciferase expression / reporter gene” value (human primary adipocytes) did it give?
A: 17 fold

Q: And the “induction of luciferase expression” value [1]?
A: 80 fold

Q: C[C@@H]1C[C@H]2[C@@H]3CCC4=CC(=O)C=C[C@]4(C)[C@@]3(F)[C@@H](O)C[C@]2(C)[C@@]1(O)C(=O)CO [Dex, Dexamethasone, reference compound] was tested. Which “Change in ear thickness, left ear (PBS)” value [2, 8] did it give?
A: 0.42 +/− 0.52 ×10^−3 inch

Q: And the “Change in ear thickness, right ear (OVA)” value [2, 8]?
A: 2.62 +/− 1.18 ×10^−3 inch

Q: And the “Change in ear thickness, left ear (PBS)” value [2, 9]?
A: 0.23 +/− 0.77 ×10^−3 inch

Q: What about the “Change in ear thickness, right ear (OVA)” value [2, 9] of the same molecule?
A: 2.89 +/− 1.29 ×10^−3 inch

Q: And the “Change in ear thickness, left ear (PBS)” value [2, 10]?
A: 0.50 +/− 0.54 ×10^−3 inch

Q: And the “Change in ear thickness, right ear (OVA)” value [2, 10]?
A: 4.38 +/− 1.34 ×10^−3 inch

Q: What about the “Average adrenal weight/100 g body weight” value (adrenal glands) of the same molecule?
A: 13.12 +/− 0.88

Q: What about the “IL-6, 4 hours” value ([3]; Expt 2, 0.15 mg/kg Dex) of the same molecule?
A: 37.1 ± 8.8 ng/mL

Q: What about the “TNFα, 1 hour” value ([3]; Expt 2, 0.15 mg/kg Dex) of the same molecule?
A: 1765 ± 589 pg/mL

Q: What about the “IL-6, 4 hours” value ([3]; Expt 2, 1.5 mg/kg Dex) of the same molecule?
A: 16.0 ± 4.9 ng/mL

Q: And the “TNFα, 1 hour” value ([3]; Expt 2, 1.5 mg/kg Dex)?
A: 264 ± 138 pg/mL

Q: And the “Pixel density: Neutrophils, left ear (PBS)” value [4]?
A: 749 +/− 686

Q: What about the “Pixel density: Neutrophils, right ear (OVA)” value [4] of the same molecule?
A: 3651 +/− 2779

B1: recombinant human Corticotroph-derived Glycoprotein Hormone (rhCGH), heterodimer of GPHA2 and GPHB5 (ligand)
chain 1: QEAVIPGCHLHPFNVTVRSDRQGTCQGSHVAQACVGHCESSAFPSRYSVLVASGYRHNITSVSQCCTISGLKKVKVQLQCVGSRREELEIFTARACQCDMCRLSRY
chain 2: ASSGNLRTFVGCAVREFTFLAKKPGCRGLRITTDACWGRCETWEKPILEPPYIEAHHRVCTYNETKQVTVKLPNCAPGVDPFYTYPVAIRCDCGACSTATTECETI
notes: correct NH2 termini reported; also called Thyrostimulin
Q: For B1, which Kd [5] is on record?
A: 0.00119 µM

Q: What about the Kd [6] of the same molecule?
A: 2700 µM

B2: ^125I-CGH: rhCGH radiolabeled with 125I-Bolton Hunter Reagent (protein)
chain 1: B1 chain 1
chain 2: B1 chain 2
Q: With B2 as the molecule, how does the “binding to parental BHK cells lacking the TSHR” value [7] read?
A: Little or no binding

Q: What about the “bioactivity compared to unlabeled counterpart” value (human TSHR) of the same molecule?
A: no significant differences

Q: What about the “high affinity sites per cell” value (TSHR) of the same molecule?
A: 86,000 sites per cell

Q: And the Hill slope (TSHR; specific-binding data)?
A: 1.08

Q: And the “Bmax, high-affinity site” value (TSHR; two-site model)?
A: 139±74 fmol/10^6 cells

Q: What about the “Bmax, low-affinity site” value (TSHR; two-site model) of the same molecule?
A: 1.6±1.4×10^6 fmol/10^6 cells
